Values quoted from earlier work, collected in patent US8216611B2, “Combined-step process for pharmaceutical compositions” (Mylan Pharmaceuticals ULC, priority 2005, dated 2012).

Assays:
healthy volunteers = system: healthy volunteers; parameters: tolerability at single dose: dose or concentration left out as unconfirmed
epileptic patients = details: doses up to 4000 mg/day, preliminary data

Compound: CC[C@@H](C(N)=O)N1CCCC1=O [levetiracetam, (−)-(S)-α-ethyl-2-oxo-1-pyrrolidine acetamide]
- tolerability at repeated doses (healthy volunteers; repeated doses (1500 mg/day for 14 days)): well tolerated
- tolerability at single dose (healthy volunteers; single dose): well tolerated
- solubility in water: 104.0 g/100 ml
- tolerability in epileptic patients (epileptic patients): good tolerability
